Data as given in BindingDB's records for patent US20240109915 (Pfizer, 2024).
pIC50: −log10 of the molar value.

Biological target: Acetyl-CoA carboxylase 1 (Homo sapiens, UniProt Q13085)
Assay: Inhibition of the Activity of ACC1
Procedure: The direct inhibition of ACC1 for the compounds of the present invention was determined using preparations of recombinant human ACC1 (rhACC1) (SEQ ID NO. 1). Preparation of rhACC1: Two liters of SF9 cells, infected with recombinant baculovirus containing full length human ACC1 cDNA, were suspended in ice-cold lysis buffer (25 mM Tris, pH 7.5; 150 mM NaCl; 10% glycerol; 5 mM imidazole (EMD Bioscience; Gibbstown, NJ); 2 mM TCEP (BioVectra; Charlottetown, Canada); Benzonase nuclease (10000 U/100 g cell paste; Novagen; Madison, WI); EDTA-free protease inhibitor cocktail (1 tab/50 ml; Roche Diagnostics; Mannheim, Germany). Cells were lysed by 3 cycles of freeze-thaw and centrifuged at 40,000×g for 40 minutes (4° C.). Supernatant was directly loaded onto a HisTrap FF crude column (GE Healthcare; Piscataway, NJ) and eluted with an imidazole gradient up to 0.5 M over 20 column volumes (CV). ACC1-containing fractions were pooled and diluted 1:5 with 25 mM Tris, pH 7.5, 2 mM TCEP, 10% glycerol and direct loaded onto a CaptoQ (GE Healthcare) column and eluted with an NaCl gradient up to 1 M over 20 CV's. Phosphate groups were removed from purified ACC1 by incubation with lambda phosphatase (100 U/10 μM target protein; New England Biolabs; Beverly, MA) for 14 hours at 4° C.; okadaic acid was added (1 μM final concentration; Roche Diagnostics) to inhibit the phosphatase. […]

| pIC50 | SMILES |
| --- | --- |
| 7.64 | Cn1ncc2c(Cl)cc(C(=O)N3CCC4(CC3)CC(=O)c3nc(C(C)(C)C)sc3C4)cc21 [US20240109915, Example 73] |
| 7.03 | Cc1nn(C)c2c(Cl)cc(C(=O)N3CCC4(CC3)CC(=O)c3nc(C(C)(C)C)sc3C4)cc12 [US20240109915, Example 84] |
